Laboratory results published in US10370356B2, “Pyridinone dicarboxamide for use as bromodomain inhibitors” (GlaxoSmithKline Intellectual Property (No. 2) Limited, priority 2015, dated 2019).
Structures can show the parent of a compound that is named as a salt.

The molecules below were run against T1, BRD4 BD2 (Homo sapiens, UniProt O60885, Y97A) (assay: BRD4 BD2 mutant TR-FRET competition assay). Details: average of N recorded values, read-out: BRD4 BD2 IC50 (average value) (converted).
T1 construct: BRD4 (1-477) (Y97A) and (Y390A); made in house; host or cells: E. coli (pET15b vector)
Type: binding

For `CNC(=O)c1cc(C(=O)NCCCC2CCNCC2)cn(Cc2ccccc2)c1=O` [Example 6a, 1-Benzyl-N^3-methyl-2-oxo-N^5-(3-(piperidin-4-yl)propyl)-1,2-dihydropyridine-3,5-dicarboxamide], which IC50 is on record?
Its IC50 is 31.6 nM.

`CNC(=O)c1cc(C(=O)NCCCC2CCN(C)CC2)cn(Cc2ccccc2)c1=O` [Example 7, 1-Benzyl-N^3-methyl-N^5-(3-(1-methylpiperidin-4-yl)propyl)-2-oxo-1,2-dihydropyridine-3,5-dicarboxamide] was tested. Which IC50 did it give?
The IC50 was 31.6 nM.

`CNC(=O)c1cc(C(=O)NCCCC2CCNCC2)cn(Cc2cccc(OCCO)c2)c1=O` [Example 23, 1-(3-(2-Hydroxyethoxy)benzyl)-N^3-methyl-2-oxo-N^5-(3-(piperidin-4-yl)propyl)-1,2-dihydropyridine-3,5-dicarboxamide] was tested. Which IC50 did it give?
Its IC50 is 50.1 nM.

How did the IC50 turn out when `CNC(=O)c1cc(C(=O)NCCCC2CCN(CCO)CC2)cn(Cc2ccccc2)c1=O` [Example 25] was run?
The IC50 was 39.8 nM.

How did the IC50 turn out when `CNC(=O)c1cc(C(=O)NCCCC2CCN(CCF)CC2)cn(Cc2ccccc2)c1=O` [Example 29, 1-Benzyl-N^5-(3-(1-(2-fluoroethyl)piperidin-4-yl)propyl)-N^3-methyl-2-oxo-1,2-dihydropyridine-3,5-dicarboxamide. formic acid salt] was run?
The IC50 was 25.1 nM.

With `CNC(=O)c1cc(C(=O)NCCCC2CCNCC2)cn(Cc2cccc3[nH]ccc23)c1=O` [Example 30, 1-((1H-Indol-4-yl)methyl)-N^3-methyl-2-oxo-N^5-(3-(piperidin-4-yl)propyl)-1,2-dihydropyridine-3,5-dicarboxamide] as the molecule, how does the IC50 read?
Its IC50 is 10 nM.

Same assay, conditions: read-out: pIC50 in the BRD4 BD2 assay (converted)

Which IC50 does the source give for `CNC(=O)c1cc(C(=O)NCCC2CCNCC2)cn(Cc2ccccc2)c1=O` [Example 2, 1-Benzyl-N^3-methyl-2-oxo-N^5-(2-(piperidin-4-yl)ethyl)-1,2-dihydropyridine-3,5-dicarboxamide] here?
The IC50 was at most 100 nM.

How did the IC50 turn out when `CNC(=O)c1cc(C(=O)NCCC2CCN(C)CC2)cn(Cc2ccccc2)c1=O` [Example 3, 1-Benzyl-N^3-methyl-N^5-(2-(1-methylpiperidin-4-yl)ethyl)-2-oxo-1,2-dihydropyridine-3,5-dicarboxamide] was run?
The IC50 was at most 100 nM.

For `CNC(=O)c1cc(C(=O)NC2CN(C(=O)OC(C)(C)C)C2)cn(Cc2ccccc2)c1=O` [Example 4, tert-Butyl 3-(1-benzyl-5-(methylcarbamoyl)-6-oxo-1,6-dihydropyridine-3-carboxamido)azetidine-1-carboxylate], which IC50 is on record?
The IC50 was 100 to 1000 nM.

Which IC50 does the source give for `CNC(=O)c1cc(C(=O)NCCCC2CCN(C(=O)OC(C)(C)C)CC2)cn(Cc2ccccc2)c1=O` [Example 5] here?
The IC50 was 100 to 1000 nM.

`CNC(=O)c1cc(C(=O)NCCCC2CCNCC2)cn(Cc2ccccc2)c1=O` [Example 6a, 1-Benzyl-N^3-methyl-2-oxo-N^5-(3-(piperidin-4-yl)propyl)-1,2-dihydropyridine-3,5-dicarboxamide] was tested. Which IC50 did it give?
Its IC50 is at most 100 nM.

With `CNC(=O)c1cc(C(=O)NCCCC2CCN(C)CC2)cn(Cc2ccccc2)c1=O` [Example 7, 1-Benzyl-N^3-methyl-N^5-(3-(1-methylpiperidin-4-yl)propyl)-2-oxo-1,2-dihydropyridine-3,5-dicarboxamide] as the molecule, how does the IC50 read?
Its IC50 is at most 100 nM.

Which IC50 does the source give for `CNC(=O)c1cc(C(=O)NCCCC2CCN(C(C)=O)CC2)cn(Cc2ccccc2)c1=O` [Example 8, N^5-(3-(1-Acetylpiperidin-4-yl)propyl)-1-benzyl-N^3-methyl-2-oxo-1,2-dihydropyridine-3,5-dicarboxamide] here?
The IC50 was 100 to 1000 nM.

With `CNC(=O)c1cc(C(=O)NCCC2CCOC2)cn(Cc2ccccc2)c1=O` (stereo not shown) [Example 9, 1-Benzyl-N^3-methyl-2-oxo-N^5-(2-(tetrahydrofuran-3-yl)ethyl)-1,2-dihydropyridine-3,5-dicarboxamide] as the molecule, how does the IC50 read?
The IC50 was 100 to 1000 nM.

How did the IC50 turn out when `CNC(=O)c1cc(C(=O)NCCCC2CCN(CC(F)(F)F)CC2)cn(Cc2ccccc2)c1=O` [Example 10] was run?
The IC50 was at most 100 nM.

For `CCN1CCC(CCCNC(=O)c2cc(C(=O)NC)c(=O)n(Cc3ccccc3)c2)CC1` [Example 11, 1-Benzyl-N^5-(3-(1-ethylpiperidin-4-yl)propyl)-N^3-methyl-2-oxo-1,2-dihydropyridine-3,5-dicarboxamide], which IC50 is on record?
The IC50 was at most 100 nM.

Which IC50 does the source give for `CNC(=O)c1cc(C(=O)NCCCN2CCNCC2)cn(Cc2ccccc2)c1=O` [Example 12, 1-Benzyl-N^3-methyl-2-oxo-N^5-(3-(piperazin-1-yl)propyl)-1,2-dihydropyridine-3,5-dicarboxamide, hydrochloride] here?
The IC50 was at most 100 nM.

With `CNC(=O)c1cc(C(=O)NCCC2CCS(=O)(=O)CC2)cn(Cc2ccccc2)c1=O` [Example 13, 1-Benzyl-N^5-(2-(1,1-dioxidotetrahydro-2H-thiopyran-4-yl)ethyl)-N^3-methyl-2-oxo-1,2-dihydropyridine-3,5-dicarboxamide] as the molecule, how does the IC50 read?
Its IC50 is 100 to 1000 nM.

How did the IC50 turn out when `CNC(=O)c1cc(C(=O)NCCCC2CCNCC2)cn(Cc2ccccc2F)c1=O` [Example 14, 1-(2-Fluorobenzyl)-N^3-methyl-2-oxo-N^5-(3-(piperidin-4-yl)propyl)-1,2-dihydropyridine-3,5-dicarboxamide] was run?
Its IC50 is at most 100 nM.

For `CNC(=O)c1cc(C(=O)NCCCC2CCNCC2)cn(Cc2cccc(C)c2)c1=O` [Example 15, N^3-Methyl-1-(3-methylbenzyl)-2-oxo-N^5-(3-(piperidin-4-yl)propyl)-1,2-dihydropyridine-3,5-dicarboxamide], which IC50 is on record?
The IC50 was at most 100 nM.

`CNC(=O)c1cc(C(=O)NCCC2CCNCC2)cn(Cc2cccc(C)c2)c1=O` [Example 16, N^3-Methyl-1-(3-methylbenzyl)-2-oxo-N^5-(2-(piperidin-4-yl)ethyl)-1,2-dihydropyridine-3,5-dicarboxamide] was tested. Which IC50 did it give?
Its IC50 is at most 100 nM.

For `CNC(=O)c1cc(C(=O)NCCCC2CCNCC2)cn([C@H](C)c2ccccc2)c1=O` [Example 17, (R)-N^3-Methyl-2-oxo-1-(1-phenylethyl)-N^5-(3-(piperidin-4-yl)propyl)-1,2-dihydropyridine-3,5-dicarboxamide], which IC50 is on record?
Its IC50 is at most 100 nM.

For `CNC(=O)c1cc(C(=O)NCCC2CCNCC2)cn([C@H](C)c2ccccc2)c1=O` [Example 18, (R)-N^3-Methyl-2-oxo-1-(1-phenylethyl)-N^5-(2-(piperidin-4-yl)ethyl)-1,2-dihydropyridine-3,5-dicarboxamide], which IC50 is on record?
The IC50 was at most 100 nM.

How did the IC50 turn out when `CNC(=O)c1cc(C(=O)NCCCC2CCNCC2)cn(Cc2cccc(OC)c2)c1=O` [Example 19, 1-(3-Methoxybenzyl)-N^3-methyl-2-oxo-N^5-(3-(piperidin-4-yl)propyl)-1,2-dihydropyridine-3,5-dicarboxamide] was run?
The IC50 was at most 100 nM.

For `CNC(=O)c1cc(C(=O)NCCC2CCNCC2)cn(Cc2cccc(OC)c2)c1=O` [Example 20, 1-(3-Methoxybenzyl)-N^3-methyl-2-oxo-N^5-(2-(piperidin-4-yl)ethyl)-1,2-dihydropyridine-3,5-dicarboxamide], which IC50 is on record?
The IC50 was 100 to 1000 nM.

How did the IC50 turn out when `CNC(=O)c1cc(C(=O)NCCCC2CCNCC2)cn(Cc2ccc(F)c(C)c2)c1=O` [Example 21, 1-(4-Fluoro-3-methylbenzyl)-N^3-methyl-2-oxo-N^5-(3-(piperidin-4-yl)propyl)-1,2-dihydropyridine-3,5-dicarboxamide] was run?
The IC50 was at most 100 nM.

For `CNC(=O)c1cc(C(=O)NCCCC2CCNCC2)cn(Cc2ccc(F)cc2)c1=O` [Example 22, 1-(4-Fluorobenzyl)-N^3-methyl-2-oxo-N-(3-(piperidin-4-1)propyl)-1,2-dihydropyridine-3,5-dicarboxamide], which IC50 is on record?
The IC50 was at most 100 nM.

With `CNC(=O)c1cc(C(=O)NCCCC2CCNCC2)cn(Cc2cccc(OCCO)c2)c1=O` [Example 23, 1-(3-(2-Hydroxyethoxy)benzyl)-N^3-methyl-2-oxo-N^5-(3-(piperidin-4-yl)propyl)-1,2-dihydropyridine-3,5-dicarboxamide] as the molecule, how does the IC50 read?
The IC50 was at most 100 nM.

`CNC(=O)c1cc(C(=O)NCCC2CCNCC2)cn(Cc2cccc(OCCO)c2)c1=O` [Example 24, 1-(3-(2-Hydroxyethoxy)benzyl)-N^3-methyl-2-oxo-N^5-(2-(piperidin-4-yl)ethyl)-1,2-dihydropyridine-3,5-dicarboxamide] was tested. Which IC50 did it give?
Its IC50 is at most 100 nM.

Which IC50 does the source give for `CNC(=O)c1cc(C(=O)NCCCC2CCN(CCO)CC2)cn(Cc2ccccc2)c1=O` [Example 25] here?
The IC50 was at most 100 nM.

Which IC50 does the source give for `CNC(=O)c1cc(C(=O)NCCCC2CCNCC2)cn(Cc2cccc(C)c2F)c1=O` [Example 26, 1-(2-Fluoro-3-methylbenzyl)-N^3-methyl-2-oxo-N^5-(3-(piperidin-4-yl)propyl)-1,2-dihydropyridine-3,5-dicarboxamide] here?
The IC50 was at most 100 nM.

Which IC50 does the source give for `CNC(=O)c1cc(C(=O)NCCC2CCNCC2)cn(Cc2cccc(C)c2F)c1=O` [Example 27, 1-(2-Fluoro-3-methylbenzyl)-N^3-methyl-2-oxo-N^5-(2-(piperidin-4-yl)ethyl)-1,2-dihydropyridine-3,5-dicarboxamide] here?
Its IC50 is 100 to 1000 nM.

For `CNC(=O)c1cc(C(=O)NCCCC2CCN(CC(F)F)CC2)cn(Cc2ccccc2)c1=O` [Example 28], which IC50 is on record?
The IC50 was at most 100 nM.

With `CNC(=O)c1cc(C(=O)NCCCC2CCN(CCF)CC2)cn(Cc2ccccc2)c1=O` [Example 29, 1-Benzyl-N^5-(3-(1-(2-fluoroethyl)piperidin-4-yl)propyl)-N^3-methyl-2-oxo-1,2-dihydropyridine-3,5-dicarboxamide. formic acid salt] as the molecule, how does the IC50 read?
Its IC50 is at most 100 nM.

For `CNC(=O)c1cc(C(=O)NCCCC2CCNCC2)cn(Cc2cccc3[nH]ccc23)c1=O` [Example 30, 1-((1H-Indol-4-yl)methyl)-N^3-methyl-2-oxo-N^5-(3-(piperidin-4-yl)propyl)-1,2-dihydropyridine-3,5-dicarboxamide], which IC50 is on record?
The IC50 was at most 100 nM.

`CNC(=O)c1cc(C(=O)NCCC2CCCOC2)cn(Cc2ccccc2)c1=O` (stereo not shown) [Example 31, 1-Benzyl-N^3-methyl-2-oxo-N^5-(2-(tetrahydro-2H-pyran-3-yl)ethyl)-1,2-dihydropyridine-3,5-dicarboxamide] was tested. Which IC50 did it give?
The IC50 was 100 to 1000 nM.

Which IC50 does the source give for `CNC(=O)c1cc(C(=O)NCCC2CCN(C(=O)OC(C)(C)C)CC2)cn(Cc2ccccc2)c1=O` [Example 32, tert-Butyl 4-(2-(1-benzyl-5-(methylcarbamoyl)-6-oxo-1,6-dihydropyridine-3-carboxamido)ethyl)piperidine-1-carboxylate] here?
Its IC50 is 100 to 1000 nM.

For `CNC(=O)c1cc(C(=O)NC2CNC2)cn(Cc2ccccc2)c1=O` [Example 33, N^5-(Azetidin-3-l)-1-benzyl-N^3-methyl-2-oxo-1,2-dihydropyridine-3,5-dicarboxamide], which IC50 is on record?
The IC50 was 100 to 1000 nM.

`CNC(=O)c1cc(C(=O)NC2CN(C)C2)cn(Cc2ccccc2)c1=O` [Example 34, 1-Benzyl-N^3-methyl-N^5-(1-methylazetidin-3-yl)-2-oxo-1,2-dihdyropyridine-3,5-dicarboxamide] was tested. Which IC50 did it give?
The IC50 was 1000 to 100000 nM.

With `CNC(=O)c1cc(C(=O)NC2CC3OCCCC23)cn(Cc2ccccc2)c1=O` (stereo not shown) [Example 35, 1-Benzyl-N^5-(2-oxabicyclo[4.2.0]octan-7-yl)-N^3-methyl-2-oxo-1,2-dihydropyridine-3,5-dicarboxamide] as the molecule, how does the IC50 read?
The IC50 was 1000 to 100000 nM.

For `CNC(=O)c1cc(C(=O)NCCC2CCN(C)C2)cn(Cc2ccccc2)c1=O` (stereo not shown) [Example 36, 1-Benzyl-N^3-methyl-N^5-(2-(1-methylpyrrolidin-3-yl)ethyl)-2-oxo-1,2-dihydropyridine-3,5-dicarboxamide], which IC50 is on record?
The IC50 was 100 to 1000 nM.

`CNC(=O)c1cc(C(=O)NCCCN2CCOCC2)cn(Cc2ccccc2)c1=O` [Example 37, 1-Benzyl-N^3-methyl-N^5-(3-morpholinopropyl)-2-oxo-1,2-dihydropyridine-3,5-dicarboxamide] was tested. Which IC50 did it give?
Its IC50 is 100 to 1000 nM.

How did the IC50 turn out when `CNC(=O)c1cc(C(=O)NCCC2CCCN(C(=O)OC(C)(C)C)C2)cn(Cc2ccccc2)c1=O` (stereo not shown) [Example 38, tert-Butyl 3-(2-(1-benzyl-5-(methylcarbamoyl)-6-oxo-1,6-dihydropyridine-3-carboxamido)ethyl)piperidine-1-carbxylate] was run?
Its IC50 is 1000 to 100000 nM.
